This passage reports IC50 and EC50 results from ChEMBL document CHEMBL2021851, “Synthesis and SAR studies of imidazo-[1,2-a]-pyrazine Aurora kinase inhibitors with improved off-target kinase selectivity” (Bioorg Med Chem Lett, 2012).

For one test, the target named is T1, Aurora kinase A (Homo sapiens, UniProt O14965).
T1 sequence (O14965 whole entry): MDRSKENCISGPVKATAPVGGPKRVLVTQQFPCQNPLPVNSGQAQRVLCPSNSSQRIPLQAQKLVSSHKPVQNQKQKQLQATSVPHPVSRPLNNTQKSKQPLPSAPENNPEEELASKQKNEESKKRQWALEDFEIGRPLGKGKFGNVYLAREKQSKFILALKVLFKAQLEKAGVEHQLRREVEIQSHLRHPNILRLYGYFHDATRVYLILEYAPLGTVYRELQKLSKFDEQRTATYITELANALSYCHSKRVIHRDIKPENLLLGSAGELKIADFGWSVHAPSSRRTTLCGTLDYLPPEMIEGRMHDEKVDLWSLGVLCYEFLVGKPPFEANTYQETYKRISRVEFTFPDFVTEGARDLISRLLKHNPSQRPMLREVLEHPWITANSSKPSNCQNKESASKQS
As to the kind of experiment: Inhibition of aurora A kinase using 5TAMRA-GRTGRRNSICOOH as substrate by fluorescent assay.

Test [1] has as its target T2, Aurora kinase B (Homo sapiens, UniProt Q96GD4). As to the kind of experiment: Inhibition of aurora B kinase in human HCT116 cells assessed as inhibition of histone H3 phosphorylation incubated for 1 hr by Hoechst 33342 staining based microscopic analysis. It is filed as cell-based, HCT-116.
Test [2] deals with T2, Aurora kinase B. Briefly: Inhibition of aurora B kinase using 5TAMRA-GRTGRRNSICOOH as substrate by fluorescent assay.

pEC50, pIC50: −log10 of the molar value.

T2 sequence (Q96GD4 whole entry): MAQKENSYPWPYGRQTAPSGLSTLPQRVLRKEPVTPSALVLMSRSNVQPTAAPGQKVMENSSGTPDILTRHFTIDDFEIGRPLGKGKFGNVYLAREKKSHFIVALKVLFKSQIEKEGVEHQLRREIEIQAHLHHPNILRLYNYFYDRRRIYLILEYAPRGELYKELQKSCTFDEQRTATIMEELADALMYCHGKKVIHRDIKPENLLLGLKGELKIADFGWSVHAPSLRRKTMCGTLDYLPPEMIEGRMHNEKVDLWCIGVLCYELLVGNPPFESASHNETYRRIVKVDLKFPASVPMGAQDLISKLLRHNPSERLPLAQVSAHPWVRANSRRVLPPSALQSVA

One may read the pIC50 as −log10 of the IC50, conventionally taken in molar units. A word on the pEC50: it is the negative decadic logarithm of the EC50, by convention in mol/L. As for `Cc1cn2c(-c3cnn(CC(=O)NCc4cccc(F)c4)c3)cnc2c(Nc2cc(CN3CCCCC3)ns2)n1`, the pIC50 against Aurora kinase A was 7.52; at Aurora kinase B [2], no less than 7.89. The pEC50 on Aurora kinase B [1] was 6.63.
The corresponding values for `Cc1cn2c(-c3cnn(CC(=O)Nc4cccnn4)c3)cnc2c(Nc2cc(CN3CCCC(C)C3)ns2)n1` (configuration not stated) are 6.20, 7.35 and 6.02.
Consider `Cc1cn2c(-c3cnn(Cc4nc5ccccc5[nH]4)c3)cnc2c(Nc2cc(CN3CCCC(C)C3)ns2)n1` (configuration not stated), for which the pIC50 is 7.74 against Aurora kinase A and no less than 7.89 against Aurora kinase B [2]. Moreover, the pEC50 at Aurora kinase B [1] was 6.27.
As to `Cc1cn2c(-c3cnn(CC(=O)N4CCOCC4)c3)cnc2c(Nc2cc(CN3CCCCC3)ns2)n1`, the pIC50 at Aurora kinase A and against Aurora kinase B [2] was less than 5.52 throughout.
Regarding `Cc1cn2c(-c3cnn(CC(=O)Nc4cc[n+]([O-])cc4)c3)cnc2c(Nc2cc(CN3CCCC(C)C3)ns2)n1` (configuration not stated), the pIC50 was 7.17 against Aurora kinase A and 7.04 on Aurora kinase B [2]. Moreover, at Aurora kinase B [1], the pEC50 was 6.40.
Take `Cc1cn2c(-c3cnn(CC(=O)N(C)Cc4ccccc4)c3)cnc2c(Nc2cc(CN3CCCC(C)C3)ns2)n1` (configuration not stated): the values for the pIC50 against Aurora kinase A and against Aurora kinase B [2] were 5.79 and 6.58, respectively.
With `Cc1cn2c(-c3cnn(CC(=O)NCc4cccc(C(F)(F)F)c4)c3)cnc2c(Nc2cc(CN3CCCC(C)C3)ns2)n1` (configuration not stated), the pIC50 at Aurora kinase A is 6.38; against Aurora kinase B [2] it was 7.46. The pEC50 at Aurora kinase B [1] was less than 6.00.
As for `Cc1cn2c(-c3cnn(CC(=O)Nc4cccnc4)c3)cnc2c(Nc2cc(CN3CCCC(C)C3)ns2)n1` (configuration not stated), the pIC50 was 6.73 on Aurora kinase A and 6.93 against Aurora kinase B [2].
The corresponding values for `Cc1cn2c(-c3cnn(CC(=O)Nc4ccncc4O)c3)cnc2c(Nc2cc(CN3CCCC(C)C3)ns2)n1` (configuration not stated) are 6.62 and 6.55.
Regarding `Cc1cn2c(-c3cnn(CC(=O)NCc4ccccc4)c3)cnc2c(Nc2cc(CN3CCCC(C)C3)ns2)n1` (configuration not stated), the pIC50 at Aurora kinase A is 7.68; against Aurora kinase B [2], no less than 7.89. The pEC50 at Aurora kinase B [1] is 6.89.
The like results for `Cc1cn2c(-c3cnn(Cc4nc(-c5ccccc5)no4)c3)cnc2c(Nc2cc(CN3CCCCC3)ns2)n1` were, in that order, no less than 8.40, no less than 7.89 and less than 6.00.
For the compound `Cc1cn2c(-c3cnn(CC(=O)Nc4ccc(F)cc4)c3)cnc2c(Nc2cc(CN3CCCCC3)ns2)n1`, the pIC50 is 7.28 against Aurora kinase A and 7.52 on Aurora kinase B [2]. At Aurora kinase B [1], the pEC50 is 6.39.
In the case of `Cc1cn2c(-c3cnn(CC(=O)NCc4ccncc4)c3)cnc2c(Nc2cc(CN3CCCC(C)C3)ns2)n1` (configuration not stated), the figures for the negative-log IC50 (pIC50) against Aurora kinase A and against Aurora kinase B [2] were 5.61 and 5.96, respectively.
As for `Cc1cn2c(-c3cnn(CC(=O)Nc4cccc(F)c4)c3)cnc2c(Nc2cc(CN3CCCCC3)ns2)n1`, the negative-log IC50 (pIC50) at Aurora kinase A was 6.47; against Aurora kinase B [2] it was no less than 7.89. The pEC50 at Aurora kinase B [1] is 6.05.
As for `Cc1cn2c(-c3cnn(CC(=O)NCc4ccc(C(F)(F)F)cc4)c3)cnc2c(Nc2cc(CN3CCCC(C)C3)ns2)n1` (configuration not stated), the pIC50 at Aurora kinase A is less than 5.52; against Aurora kinase B [2], 6.76.
For `Cc1cn2c(-c3cnn(CC(=O)NCCC(C)C)c3)cnc2c(Nc2cc(CN3CCCCC3)ns2)n1`, the pIC50 at Aurora kinase A was 5.74; at Aurora kinase B [2], 7.36. For the same compound, the pEC50 on Aurora kinase B [1] is less than 6.00.
The corresponding values for `Cc1cn2c(-c3cnn(CC(=O)NCc4ccccc4F)c3)cnc2c(Nc2cc(CN3CCCCC3)ns2)n1` are 7.36, no less than 7.89 and 6.33.
Take `Cc1cn2c(-c3cnn(CC(=O)O)c3)cnc2c(Nc2cc(CN3CCCC(C)C3)ns2)n1` (configuration not stated): the pIC50 was 6.08 at Aurora kinase A and 6.84 against Aurora kinase B [2].
The corresponding values for `Cc1cn2c(-c3cnn(CC(=O)NCc4cccc(N(C)C)c4)c3)cnc2c(Nc2cc(CN3CCCC(C)C3)ns2)n1` (configuration not stated) are 6.07 and 6.81.
The like results for `Cc1cn2c(-c3cnn(CC(=O)O)c3)cnc2c(Nc2cc(CN3CCCCC3)ns2)n1` were, in that order, 5.74 and 6.44.
`Cc1cn2c(-c3cnn(CC(=O)Nc4ccccn4)c3)cnc2c(Nc2cc(CN3CCCC(C)C3)ns2)n1` (configuration not stated): the pIC50 is 6.73 on Aurora kinase A and 7.49 on Aurora kinase B [2]. The pEC50 on Aurora kinase B [1] was 6.55.
`Cc1cn2c(-c3cnn(CC(=O)Nc4cccnc4F)c3)cnc2c(Nc2cc(CN3CCCC(C)C3)ns2)n1` (configuration not stated): the pIC50 is 6.12 on Aurora kinase A and 7.09 at Aurora kinase B [2]. The pEC50 at Aurora kinase B [1] was 6.96.
On to `Cc1cn2c(-c3cnn(CC(=O)NCc4cccnc4)c3)cnc2c(Nc2cc(CN3CCCC(C)C3)ns2)n1` (configuration not stated), for which the pIC50 against Aurora kinase A and at Aurora kinase B [2] was 6.36 each time.
Consider `Cc1cn2c(-c3cnn(CC(N)=O)c3)cnc2c(Nc2cc(CN3CCCCC3)ns2)n1`, for which the pIC50 is 5.80 on Aurora kinase A and 7.55 at Aurora kinase B [2]. Further, the pEC50 at Aurora kinase B [1] was less than 6.00.
The like results for `Cc1cn2c(-c3cnn(CC(=O)NCc4cc(F)cc(F)c4)c3)cnc2c(Nc2cc(CN3CCCCC3)ns2)n1` were, in that order, 7.66, no less than 7.89 and 6.41.
Regarding `Cc1cn2c(-c3cnn(CC(=O)Nc4cccc(F)n4)c3)cnc2c(Nc2cc(CN3CCCC(C)C3)ns2)n1` (configuration not stated), the pIC50 at Aurora kinase A is 6.99; against Aurora kinase B [2], 7.55. In addition, the pEC50 on Aurora kinase B [1] was 6.79.
Consider `Cc1cn2c(-c3cnn(CC(=O)Nc4cc(F)cc(F)c4)c3)cnc2c(Nc2cc(CN3CCCCC3)ns2)n1`, for which the pIC50 was 5.91 against Aurora kinase A and 7.03 at Aurora kinase B [2]. Also, on Aurora kinase B [1], the negative-log EC50 (pEC50) was 5.62.
On to `CNC(=O)Cn1cc(-c2cnc3c(Nc4cc(CN5CCCCC5)ns4)nc(C)cn23)cn1`, for which the negative logarithm of the IC50 (pIC50) was less than 5.52 against Aurora kinase A and 6.71 against Aurora kinase B [2].
Turning to `Cc1cn2c(-c3cnn(Cc4noc(-c5ccccc5)n4)c3)cnc2c(Nc2cc(CN3CCCCC3)ns2)n1`, the pIC50 at Aurora kinase A was no less than 8.40; against Aurora kinase B [2] it was no less than 7.89. On Aurora kinase B [1], the pEC50 was less than 6.00.
In the case of `Cc1cn2c(-c3cnn(CC(=O)NCc4ncco4)c3)cnc2c(Nc2cc(CN3CCCC(C)C3)ns2)n1` (configuration not stated), the pIC50 was 6.77 against Aurora kinase A and 6.75 on Aurora kinase B [2].
As for `Cc1cn2c(-c3cnn(CC(=O)Nc4ccccc4F)c3)cnc2c(Nc2cc(CN3CCCCC3)ns2)n1`, the pIC50 against Aurora kinase A is 6.70; at Aurora kinase B [2], 7.46. Besides, the pEC50 at Aurora kinase B [1] was 6.41.
Consider `Cc1cn2c(-c3cnn(CC(=O)NCc4ccco4)c3)cnc2c(Nc2cc(CN3CCCC(C)C3)ns2)n1` (configuration not stated), for which the pIC50 was 6.67 against Aurora kinase A and 7.15 against Aurora kinase B [2].
Take `Cc1cn2c(-c3cnn(CC(=O)Nc4ccccc4)c3)cnc2c(Nc2cc(CN3CCCC(C)C3)ns2)n1` (configuration not stated): the pIC50 against Aurora kinase A was 7.47; on Aurora kinase B [2] it was 7.29. Further, the pEC50 on Aurora kinase B [1] is 6.49.
For `COc1cccc(CNC(=O)Cn2cc(-c3cnc4c(Nc5cc(CN6CCCC(C)C6)ns5)nc(C)cn34)cn2)c1` (configuration not stated), the negative-log IC50 (pIC50) on Aurora kinase A was 7.24; on Aurora kinase B [2], 7.39. Besides, at Aurora kinase B [1], the pEC50 is 6.35.
Regarding `Cc1cn2c(-c3cnn(CC(=O)N(C)C)c3)cnc2c(Nc2cc(CN3CCCCC3)ns2)n1`, the pIC50 at Aurora kinase A and on Aurora kinase B [2] was less than 5.52 throughout.
Regarding `Cc1cn2c(-c3cnn(Cc4nc(-c5ccccc5)c[nH]4)c3)cnc2c(Nc2cc(CN3CCCCC3)ns2)n1`, the pIC50 against Aurora kinase A was 6.23; against Aurora kinase B [2], 7.68. Besides, at Aurora kinase B [1], the pEC50 is 6.05.
For the compound `Cc1cn2c(-c3cnn(CC(=O)Nc4nccs4)c3)cnc2c(Nc2cc(CN3CCCC(C)C3)ns2)n1` (configuration not stated), the figures for the pIC50 on Aurora kinase A and at Aurora kinase B [2] were 7.00 and no less than 7.89, respectively. For the same compound, the pEC50 at Aurora kinase B [1] was less than 6.00.
For the compound `Cc1cn2c(-c3cnn(CC(=O)NCc4cccc(F)c4F)c3)cnc2c(Nc2cc(CN3CCCCC3)ns2)n1`, the pIC50 on Aurora kinase A was 7.35; against Aurora kinase B [2] it was no less than 7.89. The pEC50 at Aurora kinase B [1] was 6.06.
Take `COc1ccc(CNC(=O)Cn2cc(-c3cnc4c(Nc5cc(CN6CCCC(C)C6)ns5)nc(C)cn34)cn2)cc1` (configuration not stated): the pIC50 on Aurora kinase A is 5.71; against Aurora kinase B [2], 6.79.
With `Cc1cn2c(-c3cnn(CC(=O)NCCN(C)C)c3)cnc2c(Nc2cc(CN3CCCC(C)C3)ns2)n1` (configuration not stated), the results for the pIC50 against Aurora kinase A and against Aurora kinase B [2] were less than 5.52 and 6.12, respectively.
In the case of `Cc1cn2c(-c3cnn(CC(=O)NCc4ccc(F)cc4)c3)cnc2c(Nc2cc(CN3CCCCC3)ns2)n1`, the pIC50 on Aurora kinase A was 7.40; against Aurora kinase B [2], no less than 7.89. For the same compound, the pEC50 on Aurora kinase B [1] was 6.38.
